Data set [1] relates to healthy adult mongrel dogs. Briefly: Protocol M: hemodynamics in anesthetized open-chest dogs, systolic arterial pressure held constant. The class given is in vivo. As for the experimental part:
The experimental work was carried out as follows: Twelve healthy adult mongrel dogs (20-30 kg) of both sexes were anesthetized with intravenous sodium pentobarbital (25 mg/kg). A left thoractomy was performed through the fifth intercostal space. Catheters were placed to record left atrial, left ventricular and aortic pressures. Descending aortic blood flow was measured with an electromagnetic flowmeter. Heart rate (HR) was calculated using electocardiographic recording, lead aVF. All parameters were recorded on a Gould polygraph. The dogs were randomly assigned either to the control or to the treated group. Six of the dogs were in the control group and these dogs were infused with a placebo, namely the vehicle used for the drug tested. […] Berberine (as the hydrochloride salt) was administered to six anesthesized dogs (barbiturate). The dose was 0.7 mg/kg/min. intravenously infused durng 5 minutes. This dose was repeated after 45 minutes. Systolic arterial pressure was maintained at a constant rate using a reservoir full of blood under constant pressure connected to the femoral artery. Whenever the arterial pressure was not maintained constant in the work reported (and allowed to drop) appropriate reference is made herein to that fact. Systemic arterial pressure was maintained at a constant rate in order to obtain accurate dP/dt since this parameter is of extreme importance in these studies. However, as a consequence, the vascular peripheral resistence, when described as a function of mean aortic pressure, was higher than if the pressure would be allowed to fall with the administration of the compound. Therefore, the reduction calculated total peripheral resistence is underestimated. Also dP/dt is less increased when bradycardia (lower heart rate) occurs and since heart rate was allowed to fall (which is the effect of the drug), the increase in dP/dt reported here is actually underestimated as compared to preparations in which heart rate would have been maintained constant. In Tables I to IX the results of these experiments are presented. The first two lines presents the studied parameter in absolute values, the third line representing the "t" values used in Student's t test for group observation, between the treated and control groups. The fourth line presents the level of significance. The next four lines give the values as changes (Δ) from the value before treatment to the value after treatment. The third set of values represent the changes in percent. The last two sets of two lines represent the paired t-test values and the derived p values obtained by analyzing the data from before the infusion of the drug (last set of two lines) or the placebo (next to last set of two lines), in the subsequent time interval (i.e. after infusion). Therefore, each dog serves as his own control, thus increasing the statistical value of the tests. […] Thus, the calculated peripheral resistance increased by 18% (P <0.02).

The subject of another data set is Mongrel dogs. Briefly: Protocol HV: acute left ventricular failure by coronary microsphere embolization, closed chest. The conditions noted are these: for overall result in the model of acute left ventricular failure / preload reduction: dog, in vivo. The data set is classed as in vivo. As for the experimental part: - Experiments were carried out in 21 mongrel dogs of either sex with body weight between 19 and 39 kg. Anesthesia was induced with sodium pentobarbital, 25 mg/kg of body weight intravenously, and small supplementary doses were given as necessary to maintain a constant level of anesthesia. The dogs were placed in the left lateral position and ventilation was maintained through a cuffed endotracheal tube with a volume-controlled respirator (Harvard Apparatus Co., Millis, Massachusetts). Polyethylene cannuleae were placed into the jugular and femoral veins for intravenous infusions and drug adminstration. Electrocardiograms (lead aVF) were monitored continuously throughout the experiments.
A polyethylene cannula was introduced into the aorta through the left carotid artery to record arterial pressure. (Stantham P23 ID transducer, Stantham Instruments, Inc. Oxnard, California). A Millar microtip transducer catheter (Millar Instruments, Inc., Houston, Texas) was introduced into the left ventricular cavity through the femoral artery to measure left ventricular pressures. For adjustment of zero level, left ventricular pressure was also measured through the fluid-filled lumen in the Millar catheter (Statham P23 ID transducer). The maximal rate of rise of left ventricular pressure, LV dP/dt, was recorded by means of a differentiator. All these parameters were recorded continuously on a polygraph (Gould 2800, Gould Instruments, Cleveland, Ohio). Cardiac output was determined by the thermodilution technique, using a thermistor catheter in the pulmonary artery and calculated by a cardiac output computer (Elecath, Electro- catheter Corp., Rahway, New Jersey). The coefficient of variation for duplicate CO measurements was 5%. In addition to the parameters directly obtained, total peripheral vascular resistance was calculated from the ratio of […] and cardiac output. Stroke volume was calculated by dividing cardiac output by heart rate. Heparin (Invendex) (5000 IU) was administered to avoid clotting of the catheters.
To induce acute left vetricular failure, initially the left main coronary artery was catheterized with a Judkin coronary artery catheter (7F, ISCI Cardiology and Radiology Products, Billerica, Massachusetts) under fluoroscopic control. It was introduced through a femoral artery, and polystyrene microspheres (3M Company, St. Paul, Minnesota) with a diameter of 52. 5 ± 4.0 µm (mean±SD) were injected into the coronary artery. The microspheres were used in a concentration of 1 mg (i.e., 12,000) per ml saline. The first dose of microsphere solution was 0.5 mi/kg body weight, and all subsequent doses were 0.25 ml/kg body weight, administered every 5 minutes. Administration of microspheres was discontinued when LV/dP/dt had been reduced by 30% or more when measured 4 minutes after the last dose. All dogs received prophylactic antiarrhythmic treatment with intravenous lidocaine, 1.5 mg/kg body weight as a bolus 20 min after the end of embolization, followed by a continuous infusion of […].
Forty-five minutes were allowed to elapse to verify the stability of the preparation. If Lv dP/dt or left ventricular end diastolic pressure had changed by 20% or more between 30 and 45 minutes after embolization, the dogs were excluded from this study and not randomized. Forty-five minutes after the end of embolization, the dogs were assigned randomly to three groups: a) Berberine-treated group, 0.2 mg/kg/ min, dissolved in 60 ml of a solution of 5% dextrose in water administered in a constant infusion during 30 minutes; b) ouabain-treated group, 0.03 mg/kg was administered in 60 ml of a 5% solution of dextrose in water during 30 minutes; and c) Control group, administration of 60 ml of a 5% solution of dextrose in water during 30 min. […]

In the case of `COc1ccc2cc3[n+](cc2c1OC)CCc1cc2c(cc1-3)OCO2` [berberine], the “diastolic aortic pressure (DAP)” value in data set [1] (after treatment, from 84 before) was 62 mmHg. Further, the “increase in peak blood flow velocity” value in data set [1] (descending aorta) is roughly 50%. Also, in data set [1] (dog, in vivo), the “arrhythmias during the experimental period” value is on record as “did not develop any type of arrhythmias”, the “drop of DAP” value is recorded as 20 mmHg and the “reduction in HR” value came out at 9 beats/min. Also, in data set [1] (end of experiment), the “difference in dP/dt between the control group and the berberine-treated group” value came out at 50%. Also, the “dP/dt maximum of the left ventrical” value in data set [1] (end of experiment, 0.7 mg/kg/min i.v. 5 min, repeated after 45 min, control 2009 ± 132) amounted to 2974 ± 121 mmHg/s. For the same compound, the “increase in the acceleration of blood flow (dF/dt)” value in data set [1] (first vs last column of Table III) was roughly 65%. Moreover, the “mean left artrial pressure (LAP)” value in data set [1] (initial 1 or 2 mmHg) is “no change”. Besides, in data set [1] (normal, averaging 3 mmHg), the “left ventricular end diastolic pressure (LVEDP)” value was “no change”. In data set [1] (summary statement), the “increase of dF/dt” value is “at least 50%” and the “increase of dP/dt” value is on record as “at least 50%”. Besides, the “time to increase of LVdP/dt and reduction of left ventricular end diastolic pressure” value in the data set with Mongrel dogs (0.2 mg/kg/min infusion) is no more than 2.5 min. Also, in the data set on Mongrel dogs (0.2 mg/kg/min, 30 min), the “Diastolic and mean arterial pressure” value is recorded as “significantly although only slightly reduced”; the Systolic arterial pressure entry was “not significantly changed”; the “decrease of total peripheral vascular resistance” value is 19 ± 2%; the “fall of heart rate” value is given as 8 beats/min. The “increase of LVdP/dt” value with Mongrel dogs (0.2 mg/kg/min, end of the 30-minute infusion) stood at 28 ± 8%. In the data set on Mongrel dogs (after infusion, from 1.76 ± 0.15), this compound had a cardiac output of 1.93 ± 0.16 L/min. Moreover, the Stroke volume in the data set with Mongrel dogs (after infusion, from 14.6 ± 1.9) came out at 17.3 ± 2.7 mL. In the data set on Mongrel dogs (after infusion, from 28 ± 2), the pulse pressure is reported as 33 ± 4 mmHg. Moreover, the “Total peripheral vascular resistance” value with Mongrel dogs (after infusion, from 4915 ± 559) is 4004 ± 496 10^-5N·S·cm^-5. The “decrease of left venticular end diastolic pressure” value in the data set on Mongrel dogs (end of the 30-minute infusion) was 38 ± 4%. Moreover, the “Left venticular end diastolic pressure” value with Mongrel dogs (end of the 30-minute infusion, from 13.3 ± 0.8) was 8.1 ± 0.5 mmHg. The compound further had an LVdP/dt with Mongrel dogs (end of the 30-minute infusion, from 1572 ±80) of 2010 ± 95 mmHg/s.

As to `COc1ccc2cc3[n+](cc2c1O)CCc1cc2c(cc1-3)OCO2` [berberrubine], in data set [1] (dog, in vivo), the “result of the corresponding Protocol M experiments (dP/dt, peak blood flow, acceleration of flow, heart rate, diastolic pressure)” value was “like results are obtained”. In addition, in the data set on Mongrel dogs, the “overall result in the model of acute left ventricular failure” value is on record as “perform in an equivalent manner” and the preload reduction entry is listed as “comparable preload reduction”.

In the case of `COc1cc2c(cc1O)C[C@H]1c3cc(O)c(OC)cc3CCN1C2` [coreximine], the “result of the corresponding Protocol M experiments (dP/dt, peak blood flow, acceleration of flow, heart rate, diastolic pressure)” value in data set [1] (dog, in vivo) is on record as “like results are obtained”. In the data set with Mongrel dogs, the “overall result in the model of acute left ventricular failure” value is “perform in an equivalent manner” and the preload reduction entry was “comparable preload reduction”.

The values are drawn from EP0108147B1, “Use of a protoberberine alkaloid and composition containing same” (MAROKO, Peter R., priority 1982, dated 1983).
